# Experiments:
# [1] = test system: SARS-CoV-2 (WK-521, ancestral strain); test: SARS-CoV-2 inhibition MTT assay in Vero E6/TMPRSS2 cells; assay type: cell-based; conditions: for EC50: Severe acute respiratory syndrome coronavirus 2, VeroE6/TMPRSS2; for Selectivity index: between EC50 and CC50, WK-521, Vero E6/TMPRSS2 cells
# [2] = test system: SARS-CoV-2 mediated cell-to-cell fusion; assay type: cell-based; conditions: 0.8 to 25 μM; 24 h
# [3] = test system: sphingomyelin on the plasma membrane in Vero E6 cells; assay type: cell-based; conditions: 5 μM, 30 min, versus control (DMSO)
# [4] = test system: high fat diet-induced obesity mice models; conditions: oral intake; cited from earlier work
# in vitro = conditions: African green monkey
compound,measurement,setting,value
"O=C(CCCCCCCCc1ccc(O)c(O)c1)c1c(O)cccc1O [Compound 1, Malabaricone C]",EC50,[1],1500 nM
same,Selectivity index,[1],9.7
same,inhibition of cell fusion (yellow hypertrophic cells),[2],increased in a dose-dependent manner
same,fluorescence intensity of EGFP-NT-Lys on the plasma membrane (clustered SM),[3],lower than that of the control
same,fluorescence intensity of EqtII-EGFP (dispersed SM),[3],almost no difference
same,efficacies in high fat diet-induced obesity mice,[4],"reducing weight gain, improving glucose tolerance, and reducing hepatic steatosis"
same,CC50,in vitro,14 µM
CCCCCC/C=C\CCCCCCCc1cccc(O)c1C(=O)O [Ginkgolic acid],EC50,[1],7900 nM
CC(C)C(=O)OC[C@H]1O[C@@H](n2ccc(NO)nc2=O)[C@H](O)[C@@H]1O [Molnupiravir],EC50,[1],150 nM
same,Selectivity index,[1],33.8
same,CC50,in vitro,5.3 µM
CCC(CC)COC(=O)[C@H](C)N[P@](=O)(OC[C@H]1O[C@@](C#N)(c2ccc3c(N)ncnn23)[C@H](O)[C@@H]1O)Oc1ccccc1 [Remdesivir],EC50,[1],500 nM
same,CC50,in vitro,> 10 µM
